According to paper PMC6479981, “Design, Synthesis, and In Vitro Biological Activities of a Bio-Oxidizable Prodrug to Deliver Both ChEs and DYRK1A Inhibitors for AD Therapy” (Molecules, 2019):
Like-named read-outs stand apart in the source and are kept apart here.

Assays:
[1] = target: T1, peripheral binding site of eeAChE (Electrophorus electricus, UniProt O42275); assay: Propidium iodide displacement (competition) assay
T1 construct: purchased Aldrich
Experimental: The assays were performed at the Centre d’Etudes et de Recherche sur le Médicament de Normandie (CERMN) in Caen, France. […] Fluorescence intensity was monitored using a microplate reader. […] Each assay was performed in triplicate.

[2] = PAMPA-BBB permeability assay; type: in vitro ADME; conditions: pH 7.4, 4 h, room temperature
Experimental: Assays were performed at the Centre d’Etudes et de Recherche sur le Médicament de Normandie (CERMN) in Caen, France. These assays were realized according to the methodology developed by PION, by means of the Pampa-BBB Explorer™ system. This system allows the measurement of the crossing velocity of a compound from one compartment to another through an artificial membrane at pH = 7.4. The experiment was replicated 6 times in 4 h, with quantification by UV-spectra reading. The result is given in Pe [cm·s^−1], and an interpretation by comparison with standard compounds is proposed. The studied compounds were diluted at 20 mM in DMSO, then diluted at […] in Prisma HT Buffer pH 7.4 (pION). 200 µL of this solution was placed in the wells of the donor plate. 5 μL of BBB-1 Lipid was placed in the filters of the acceptor plate. 200 µL of Brain Sink Buffer was added in the wells of the acceptor plate. The sandwich was then assembled and incubated for 4 h at room temperature, without stirring. The sandwich was then separated and the UV-vis spectra of the donor and acceptor compartments were determined with the plate reader (Tecan infinite M200, Männedorf, Switzerland). Pe were calculated with the PAMPA Explorer software v.3.7 (pION Inc, Billerica, MA, USA). Standard compounds used were corticosterone and theophylline.

hBuChE [3] = target: T2, hBuChE (Homo sapiens, UniProt P06276); assay: biochemical; type: biochemical
T2 construct: purchased Aldrich
T2 sequence (P06276 29-602): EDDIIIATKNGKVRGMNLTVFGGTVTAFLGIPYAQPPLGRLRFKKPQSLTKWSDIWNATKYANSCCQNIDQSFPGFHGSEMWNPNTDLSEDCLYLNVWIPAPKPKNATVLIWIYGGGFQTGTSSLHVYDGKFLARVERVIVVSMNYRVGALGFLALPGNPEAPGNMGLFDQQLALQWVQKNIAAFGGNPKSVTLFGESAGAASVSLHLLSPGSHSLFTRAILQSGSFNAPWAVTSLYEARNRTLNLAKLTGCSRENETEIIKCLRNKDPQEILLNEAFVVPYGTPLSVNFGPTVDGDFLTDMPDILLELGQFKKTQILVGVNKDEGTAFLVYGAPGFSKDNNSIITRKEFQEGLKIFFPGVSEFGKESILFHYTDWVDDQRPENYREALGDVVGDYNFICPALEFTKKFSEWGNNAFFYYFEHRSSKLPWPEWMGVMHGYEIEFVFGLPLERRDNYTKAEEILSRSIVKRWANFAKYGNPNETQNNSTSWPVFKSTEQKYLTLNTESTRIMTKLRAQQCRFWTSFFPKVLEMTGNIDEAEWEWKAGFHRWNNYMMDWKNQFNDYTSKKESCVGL
Experimental: (§1) Inhibitory capacity of compounds on hAChE and hBuChE biological activity was evaluated through the use of Ellman’s spectrometric method. Acetylthiocholine iodide (ATCI), […] (BTCI) and 5,5-dithiobis-(2-nitrobenzoic) acid (DTNB) were purchased from Sigma Aldrich. Lyophilized hAChE and hBuChE were purchased from Aldrich, and were diluted in phosphate buffer (pH 8) so as to give an enzyme solution with 0.25 units/mL enzyme activity. In the procedure, 100 μL of 0.3 mM DTNB dissolved in phosphate buffer pH 7.4 were added into the 96 well plate, followed by 50 μL of the tested compound solution and 50 μL of enzyme solution. After 5 min of preincubation, the reaction was then initiated by the injection of 50 μL of 10 mM ATCI or BTCI solution. […] All assays were performed in duplicate, and IC50 values were determined graphically from 8 points inhibition curves using the Prism® software.

hAChE [4] = target: T3, hAChE (Homo sapiens, UniProt P22303); assay: biochemical; type: biochemical
T3 construct: purchased Aldrich
T3 sequence (P22303 32-614): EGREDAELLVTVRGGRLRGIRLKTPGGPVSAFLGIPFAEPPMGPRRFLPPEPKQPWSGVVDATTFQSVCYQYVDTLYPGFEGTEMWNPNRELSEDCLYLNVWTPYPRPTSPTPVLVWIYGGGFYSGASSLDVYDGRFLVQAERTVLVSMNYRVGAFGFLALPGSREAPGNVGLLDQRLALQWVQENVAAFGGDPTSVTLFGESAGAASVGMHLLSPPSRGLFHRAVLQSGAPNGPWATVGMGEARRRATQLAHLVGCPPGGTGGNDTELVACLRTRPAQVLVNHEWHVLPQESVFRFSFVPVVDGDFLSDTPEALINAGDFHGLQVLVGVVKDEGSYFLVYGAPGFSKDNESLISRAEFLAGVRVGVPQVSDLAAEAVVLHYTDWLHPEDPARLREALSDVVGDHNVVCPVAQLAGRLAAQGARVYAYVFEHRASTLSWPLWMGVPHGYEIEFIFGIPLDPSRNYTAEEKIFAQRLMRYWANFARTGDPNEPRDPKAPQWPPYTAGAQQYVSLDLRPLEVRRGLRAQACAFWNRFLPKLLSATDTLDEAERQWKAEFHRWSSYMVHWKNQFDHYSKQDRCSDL
Experimental: as §1

human recombinant DYRK1A = target: T4, human recombinant DYRK1A (Homo sapiens, UniProt Q13627); assay: biochemical; conditions: for inhibition at 1 µM: read-out: DYRK1a Inhibition (%)
T4 construct: Eurofins Pharma Discovery (ran the assay)
Experimental: Evaluation of the effects of compounds on the activity of the human recombinant DYRK1A was made using the LANCE® detection method, and was quantified by measuring the phosphorylation of Ulight-[…]-amide (MBP). The assays were conducted by Eurofins Pharma Discovery in Bois l’Evêque, France. […] Next, 100 nM of Ulight-[…]-amide (MBP) and 10 µM ATP were added to initiate the reaction, and the mixture was incubated for 30 min at 25 °C. A blank without enzyme was also performed for control basal measurements. The experiment was stopped by addition of 13 mM EDTA, followed by the addition of the anti-phospho-MBP antibody labeled with europium chelate after 5 min. […] Outputs are expressed as a percentage of inhibition of the control DYRK1A activity.

hBuChE [5] = target: T2, hBuChE; assay: Time-dependent (stopped time) kinetic study of hBuChE inhibition; type: biochemical
Experimental: (§2) To support the assumption of the pseudo-irreversible inhibition mechanism of both ChEs by compound 14, kinetic studies were also performed using stopped time assays at different concentrations of ligand 14. […] Using a nonlinear regression fitting analysis, the pseudo-first-order inhibition rate constant (kobs) for each concentration of 14 was obtained and the equilibrium constant (Kc) and the carbamoylation rate constant (k3) was determined by the reported method.
(§3) For the time-dependent experiments, assays were performed using a 96 well microplate reader to a final volume of 250 μL, a final enzyme concentration of 0.05 U·mL^−1 and an ATCI (or BTCI) and DNTB concentrations of 0.3 and 0.5 mM respectively in phosphate buffer (pH 8). At the starting time (t0), the inhibitor at various concentration (150 μL) was added to an equivalent volume of hAChE (or hBuChE). The mixture was then incubated at 37 °C and, at different time points, 50 μL aliquots were transferred to wells containing a solution of ATCI (or BTCI) and DTNB in phosphate buffer (200 μL) and the activity was determined by measuring the changes in absorbance at 412 nm every minute for 10 min. Blank experiments were also performed without inhibitor. The first order inhibition constant kobs was determined for all inhibitor concentrations using a nonlinear regression. Data were fitted with the equation, A = A0 exp(−kobs·t) + A∞ with A, A0, A∞ being ratios of the inhibited enzyme activity to the control activity at time t, 0, and ∞. Double reciprocal plots of kobs versus the inhibitor concentration were made to determine the equilibrium constant Kc and the carbamoylation rate constant k3, following the described method.

hAChE [6] = target: T3, hAChE; assay: Time-dependent (stopped time) kinetic study of hAChE inhibition; type: biochemical
Experimental: as §2, §3

[7] = mean value of duplicate, 5 min preincubation, read-out: IC50 hBuChE
[8] = mean value of duplicate, 5 min preincubation, read-out: IC50 hAChE
[9] = at 1 μM compound, 10 μM ATP concentration, mean value of duplicate

T1 sequence (O42275 24-633): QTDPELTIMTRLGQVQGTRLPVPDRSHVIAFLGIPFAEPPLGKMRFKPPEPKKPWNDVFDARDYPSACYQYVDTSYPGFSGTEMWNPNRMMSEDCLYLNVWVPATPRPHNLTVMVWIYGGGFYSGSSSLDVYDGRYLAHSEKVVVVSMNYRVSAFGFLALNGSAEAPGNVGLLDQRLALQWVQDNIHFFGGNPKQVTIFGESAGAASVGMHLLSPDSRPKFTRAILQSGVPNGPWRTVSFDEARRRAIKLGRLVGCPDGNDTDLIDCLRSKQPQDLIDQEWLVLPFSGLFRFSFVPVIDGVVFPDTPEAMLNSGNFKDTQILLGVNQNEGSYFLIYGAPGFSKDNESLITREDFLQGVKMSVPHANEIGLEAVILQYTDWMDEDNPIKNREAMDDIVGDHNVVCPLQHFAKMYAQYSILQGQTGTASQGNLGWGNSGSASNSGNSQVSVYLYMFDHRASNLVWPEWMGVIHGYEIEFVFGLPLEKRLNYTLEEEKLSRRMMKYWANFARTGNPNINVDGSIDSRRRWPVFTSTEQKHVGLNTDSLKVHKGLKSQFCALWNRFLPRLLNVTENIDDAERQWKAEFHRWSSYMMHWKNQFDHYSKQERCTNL

Row | Compound | IC50 (hBuChE [3]) | IC50 (hAChE [4]) | inhibition at 1 µM (human recombinant DYRK1A) | IC50 (hBuChE [3]; [7]) | IC50 (hAChE [4]; [8]) | DYRK1a Inhibition (%) (human recombinant DYRK1A; [9]) | other results
1 | CCN1/C(=C/C(C)=O)Sc2ccc(OC(=O)OCCOCCNC(=O)C3=CN(C)c4cccc(OC(=O)N(C)C)c4C3)cc21 [compound 4, (Z)-3-((2-(2-((((3-Ethyl-2-(2-oxopropylidene)-2,3-dihydrobenzo[d]thiazol-5-yl)oxy)carbonyl)oxy)ethoxy)ethyl)carbamoyl)-1-methyl-1,4-dihydroquinolin-5-yl dimethylcarbamate] | 961 ± 22 nM | 1020 ± 72.1 nM | 8% | – | – | – | inhibition at 10 µM ([1]; read-out: Propidium Iodide Displacement Inhibition (%)): 4 ± 2%; Papp at 4 h ([2]; PAMPA, read-out: Pe (PAMPA BBB, passive diffusion)): 2.41 ×10⁻⁶ cm/s
2 | CN(C)C(=O)Oc1cccc2c1cc(C(=O)NCCO)c[n+]2C [2a, reference compound] | 1440 ± 286 nM | 37.1 ± 0.1 nM | 0% | – | – | – | –
3 | CCN1/C(=C/C(C)=O)Sc2ccc(OC(=O)OCCOCCNC(=O)C3=CN(C)c4ccccc4C3)cc21 [compound 16, (Z)-3-Ethyl-2-(2-oxopropylidene)-2,3-dihydrobenzo[d]thiazol-5-yl (2-(2-(1-methyl-1,4-dihydroquinoline-3-carboxamido)ethoxy)ethyl) carbonate] | – | – | – | > 10000 nM | > 10000 nM | – | inhibition at 1 µM (human recombinant DYRK1A; [9]): 7%
4 | CCN1/C(=C/C(C)=O)Sc2ccc(OC(=O)OCCOCCNC(=O)c3cc4c(OC(=O)N(C)C)cccc4[n+](C)c3)cc21.COS(=O)(=O)[O-] [compound 14, (Z)-5-((Dimethylcarbamoyl)oxy)-3-((2-(2-((((3-ethyl-2-(2-oxopropylidene)-2,3-dihydrobenzo[d]thiazol-5-yl)oxy)carbonyl)oxy)ethoxy)ethyl)carbamoyl)-1-methylquinolin-1-ium methyl sulfate] | – | – | – | 482 ± 21 nM | 81.4 ± 0.4 nM | 5% | Propidium Iodide Displacement Inhibition (%) ([1]; compound 10^−5 M, eeAChE, propidium iodide 1 μM, mean value of triplicate): 26 ± 1%; Pe (PAMPA BBB, passive diffusion) [2]: 0 ×10⁻⁶ cm/s; carbamoylation rate constant k3 (hBuChE [5]; hBChE): 0.574 min⁻¹; Kd (hBuChE [5]; hBChE, 37 °C, double reciprocal plot of kobs vs inhibitor concentration, read-out: equilibrium constant Kc): 659 nM; second order rate constant Ki (k3/Kc), carbamylation efficacy (hBuChE [5]; hBuChE): 14500 M⁻¹ s⁻¹; carbamoylation rate constant k3 (hAChE [6]): 0.408 min⁻¹; second order rate constant Ki (k3/Kc), carbamylation efficacy (hAChE [6]): 29700 M⁻¹ s⁻¹; Kd (hAChE [6]; 37 °C, double reciprocal plot of kobs vs inhibitor concentration, read-out: equilibrium constant Kc): 230 nM
5 | CCN1/C(=C/C(C)=O)Sc2ccc(O)cc21 [Indy, reference compound] | – | – | – | > 10000 nM | > 10000 nM | – | –
6 | CCN1/C(=C/C(C)=O)Sc2ccc(OC(=O)OCCOCCNC(=O)c3cc4ccccc4[n+](C)c3)cc21.COS(=O)(=O)[O-] [compound 15, (Z)-3-((2-(2-((((3-Ethyl-2-(2-oxopropylidene)-2,3-dihydrobenzo[d]thiazol-5-yl)oxy)carbonyl)oxy)ethoxy)ethyl)carbamoyl)-1-methylquinolin-1-ium methyl sulfate] | – | – | – | 6400 ± 714 nM | > 10000 nM | 6% | inhibitory activity against hBuChE (in words) (hBuChE [3]): did not show any significant inhibitory activity; inhibitory activity against hAChE (in words) (hAChE [4]): did not show any significant inhibitory activity
